{"source": "patent US11957766B2", "about": "“HNQO1-activatable fluorescent probe for imaging cancer cells in-vitro and in-vivo” (Texas Tech University System, priority 2019, dated 2024)", "key": {"NQO1 [1]": {"target": "T1, NQO1 (Homo sapiens, UniProt P15559)", "T1 sequence (P15559 whole entry)": "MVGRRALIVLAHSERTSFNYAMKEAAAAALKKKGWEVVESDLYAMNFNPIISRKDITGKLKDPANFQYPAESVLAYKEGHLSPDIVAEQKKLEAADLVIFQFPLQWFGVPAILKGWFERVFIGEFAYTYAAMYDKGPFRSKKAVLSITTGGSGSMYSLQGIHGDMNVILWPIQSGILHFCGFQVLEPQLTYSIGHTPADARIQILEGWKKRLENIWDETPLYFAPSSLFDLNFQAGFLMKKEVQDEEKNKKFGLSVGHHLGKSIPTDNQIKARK", "experiment": "Spectroscopic response of NQ-DCP to hNQO1", "type": "biochemical", "experimental": "Spectroscopic Response of NQ-DCP to hNQO1. The spectroscopic response of the NQ-DCP probe to an hNQO1 enzyme in the presence of NADH was evaluated in a physiologically relevant buffer (0.1% BSA and 100 μM NADH containing PBS) to determine its ability to detect hNQO1. The absorption and fluorescence spectra of NQ-DCP in the absence and presence of hNQO1 are shown in FIGS. 2A and B. In the presence of hNQO1, although there was a distinct color change from yellow to red there was no difference found in the absorption maximum (425 nm) of NQ-DCP ([…]). Further, the reaction of NQ-DCP probe with hNQO1 produced a huge fluorescence enhancement at 565 nm with a large Stokes shift (140 nm) (FIG. 2B), which is favorable for sensitive detection and bioimaging analysis, because of a non-overlapping fluorescence emission. […] The inventors measured the fluorescence spectra of NQ-DCP (10 μm) following incubation with different concentrations of hNQO1 (0.12, 0.25, 0.5, 1.0, 1.5, 2.0, and 2.5 μg/mL (0.0038, 0.008, 0.016, 0.032, 0.048, 0.064, 0.08 μmol)) along with 100 μM NADH at pH 7.4 for 30 min. […] On incubation with hNQO1, the fluorescence intensity at 565 nm increased progressively with the NQO1 concentration and reached a maximum when the hNQO1 concentration was 2.5 μg/mL. The fluorescence intensity at 565 nm was linear with hNQO1 concentration, 0.25-2.0 μg/mL (FIG. 2D). The hNQO1 detection limit (LOD) of NQ-DCP was calculated to be as low as 0.095 μg/mL, based on the standard deviation of the response (Sy) and the slope of the calibration curve (S) according to the formula: LOD=3.3(Sy/S).\nSpectroscopic Methods. For absorption and fluorescence measurements, all samples were first dissolved in 100% DMSO to obtain 10 mM stock solutions and then diluted to desired concentrations in PBS buffer containing 0.1% BSA for measurement. All spectroscopic measurements were performed under physiological conditions (pH 7.4 at room temperature. hNQO1 specific NQ-DCP activation was performed under philological conditions (PBS with 0.1% of BSA at 37° C.) in the presence of 100 μM NADH for 30 min. Time-dependent fluorescent intensity changes for different concentrations of […] in the presence of NQO1 (2.0 μg/mL) and 100 μM NADH were measured using Hitachi F-2500 Fluorescence spectrophotometer (λex=420 nm and λem=565 nm)."}, "NQO1 [2]": {"target": "T1, NQO1", "experiment": "Selectivity of NQ-DCP towards hNQO1 over other biomolecules/enzymes", "type": "biochemical", "settings": "10 μM probe, 30 min; GSH, ALDH1A1, GGT, GPx, APE1, CBS, CTSL, GST-pi, NTR, NADH", "experimental": "Selectivity of NQ-DCP Towards hNQO1. The specificity of NQ-DCP probe towards hNQO1 was studied by determining its reactivity towards various biomolecules such as the glutathione (GSH, 1 mM), aldehyde dehydrogenase 1 (ALDH1A1, 2.5 μg/mL), gamma-glutamyl transferase (GGT, 10 U), glutathione Peroxidase (GPx, 10 U), apurinic/apyrimidinic endonuclease (APE1, 10 U), cystathionine-β-synthase (CBS, 2 μg/mL), cathepsin L (CTSL, 2 μg/mL), glutathione S-transferase (GST-pi, 2 μg/mL), nitroreductase (NTR, 2 μg/mL) and NADH (100 μM) alone or the combination of and NQO1 (2.5 μg/mL). […] To gain more insight into the specificity of the probe towards hNQO1, the enzyme was pre-treated with ES936 (0-100 nM), a well-known hNQO1 inhibitor [39] and then incubated with NQ-DCP.\nSelectivity Evaluation. To study the interference, NQ-DCP was incubated with various biologically relevant analytes such as thiols and other enzymes for 30 min with or without the addition of 100 μM NADH. Fluorescence spectra were analyzed to determine NQ-DCP specificity against hNQO1."}, "[3]": {"system": "normal (astrocytes) cells", "experiment": "Fluorescence microscopy of NQ-DCP in hNQO1 negative normal cells", "type": "cell-based", "settings": "10 μM, 60 min", "experimental": "Visualization of Cancer Cells by Fluorescence Imaging of hNQO1. […] The cytotoxicity of NQ-DCP was initially evaluated in cultured brain tumor (DAOY, T98G, and U87MG) and normal (astrocytes) cells to assess its biocompatibility using the resazurin reduction assay. […] Cells were incubated with NQ-DCP (10 μM) for 60 min, washed with PBS and were imaged under a fluorescence microscope.\n(§1) Cell Culture, Fluorescence Imaging, and Flow Cytometry Analysis. Brain tumor cells and astrocytes were grown in Dulbecco's modified Eagle's (DMEM) medium containing 10% Fetal Bovine Serum and 1% penicillin/streptomycin in a humidified atmosphere of 5% CO2 at 37° C. For fluorescence imaging, initially, cells were seeded into 6-well plate and cultured overnight in respective media at 37° C. Media was replaced with fresh medium containing 10 μM NQ-DCP and incubated at 37° C. for 60 min and then the medium was replaced with PBS and live cells were imaged using a fluorescence microscope. For inhibitor study, cells were pretreated with NQO1 inhibitor ES936 (100 nM) for 6 h before adding the NQ-DCP. For determining endogenous hNQO1 activity in cancer cells using flow cytometry, about 10×10^4 cells were incubated with 10 μM of NQ-DCP for 60 min and were analyzed using flow cytometry."}, "DAOY and T98G cells": {"system": "DAOY and T98G cells", "experiment": "Flow cytometry of NQ-DCP activation", "type": "cell-based, human", "settings": "10 μM, λem=586/40, about 1×10^4 cells", "experimental": "Applicability of NQ-DCP for Flow Cytometry. Flow cytometry assays were used to assess the applicability of the NQ-DCP probe to rapidly detect and quantify tumor cells containing hNQO1. The probe was incubated with cell suspensions (DAOY and T98G) for 30 min and a flowcytometry was used to measure the fluorescence (λem=586/40) in about 1×10^4 individual cells.\nas §1"}}, "note": "Values joined by “and” are separate entries in the source; they are usually repeats but may differ in a detail not shown here. Equal entries are not always repeated."}
{"smiles": "CC1=C(C)C(=O)C(C(C)(C)CC(=O)Oc2ccc(/C=C/C3=CC(=C(C#N)C#N)CC(C)(C)C3)cc2)=C(C)C1=O", "note": "[NQ-DCP]", "values": [{"measurement": "Stokes-Shift", "setting": "NQO1 [1]", "result": 145}, {"measurement": "λabs/em", "setting": "NQO1 [1]", "result": "420/465"}, {"measurement": "hNQO1 concentration range in which fluorescence intensity at 565 nm was linear", "setting": "NQO1 [1]; 10 μM probe, 100 μM NADH, 30 min", "result": "0.25 to 2.0", "unit": "µg/mL"}, {"measurement": "hNQO1 detection limit (LOD)", "setting": "NQO1 [1]; 10 μM probe, 100 μM NADH, pH 7.4, 30 min, LOD=3.3(Sy/S)", "result": 0.095, "unit": "µg/mL"}, {"measurement": "stability in the absence of hNQO1", "setting": "NQO1 [1]; PBS with 0.1% BSA, 100 μM NADH, pH 7.4, 30 min, no hNQO1", "result": "highly stable"}, {"measurement": "Stokes shift", "setting": "NQO1 [1]; after reaction with hNQO1", "result": "145 nm and 140 nm"}, {"measurement": "fluorescence enhancement (emission wavelength)", "setting": "NQO1 [1]; after reaction with hNQO1", "result": 565, "unit": "nm"}, {"measurement": "absorption maximum", "setting": "NQO1 [1]; no difference in the presence of hNQO1", "result": 425, "unit": "nm"}, {"measurement": "selectivity for hNQO1 over the other enzymes/substrates tested", "setting": "NQO1 [2]", "result": "high selectivity"}, {"measurement": "fluorescence signal in normal cells", "setting": "[3]", "result": "no signals were observed"}, {"measurement": "flow cytometry fluorescence signal", "setting": "DAOY and T98G cells", "result": "high-intensity unimodal distribution of signal"}]}
